What was measured:
human APP mRNA = experiment: Real-time qRT-PCR, human APP mRNA in elav < APP/BACE-1 flies; type: in vivo, Drosophila melanogaster; conditions: 100, 300, and 500 μM; 20-day-old males; compared to vehicle
Description: Real-time qRT-PCR with SYBR Green dye was performed to determine whether acacetin affected the expression levels of the human APP and BACE-1 mRNAs in the transgenic flies. The elav < APP/BACE-1 and elav < GFP flies were cultured from the egg stage in vials, as stated previously. The controls received 0.1% DMSO only. The total RNA was extracted from 30 heads (30 mg) of male elav < APP/BACE-1 and elav < GFP flies (20 days old) using the RNeasy Mini Kit (Qiagen, Hilden, Germany) according to the manufacturer’s instructions. The residual genomic DNA was removed using RQ1 RNase-Free DNase (Promega, Fitchburg, WI, USA), and 1 μg of the total RNA from each sample was used for complementary DNA (cDNA) synthesis with an oligo (dT) 12–18 primer (Invitrogen, Carlsbad, CA, USA) according to the protocol of the SuperScript III Reverse Transcriptase Kit. Real-time qRT-PCR was performed in 96-well plates using the StepOne Plus Real-Time PCR System (Applied Biosystems, Darmstadt, Germany). […] The mRNA expression levels of the target genes were normalized to the mRNA expression level of the housekeeping gene rp 49 that encodes the Drosophila ribosomal protein 49, and analyzed by the 2^–ΔΔCT method using the StepOne Software v2.3 and DataAssist Software (Applied Biosystems). The results are expressed as the means ± SEs of duplicate samples from three independent experiments.

GMR < APP/BACE-1 flies = experiment: Light and scanning electron microscopy of adult compound eyes; type: in vivo, Drosophila melanogaster
Description: GMR < APP/BACE-1 flies were cultured from the egg stage in polystyrene vials containing standard media supplemented with acacetin (100, 300, and 500 μM) in 0.1% DMSO, based on the preliminary test results. The controls received 0.1% DMSO only. […] The morphology of the compound eyes was observed using an EZ4 HD stereo microscope (×35) equipped with an Integrated 3.0 Mega-Pixel CMOS camera (Leica, Hicksville, NY, USA). The flies with aberrant eye phenotypes were collected, and the number of the flies with dark deposits in the eye was counted.
For SEM, the anesthetized male flies (30 days old) were attached to a copper mount using silver paint as a conducting adhesive, as described previously. They were then put directly into the viewing chamber of an SEM without prior coating, as described by Hartman and Hayes[76]. The external surface morphology of the compound eye was visualized using a Supra 55VP field-emission scanning electron microscope (Carl Zeiss, Jena, Germany) operated at 15 kV.

In the case of `COc1ccc(-c2cc(=O)c3c(O)cc(O)cc3o2)cc1` [acacetin], the “reduction in the APP mRNA levels” value (human APP mRNA) is reported as 69–82%, the “ratio of female flies with dark deposits in the eyes” value (GMR < APP/BACE-1 flies; 100, 300, and 500 μM in media, 1-day-old females, vehicle DMSO […]) is reported as 6.3–8.0% and the “ratio of male flies with dark deposits in the eyes” value (GMR < APP/BACE-1 flies; 100, 300, and 500 μM in media, 1-day-old males, vehicle DMSO 18.7%) is reported as 5.0–7.0%. The “ommatidial fusion in the central side of the eyes” value (GMR < APP/BACE-1 flies; 100, 300, and 500 μM, light microscopy, vs vehicle-fed flies) was “significantly suppressed ommatidial fusion” and the “ommatidial fusion at the edges of the eyes” value (GMR < APP/BACE-1 flies; 300 and 500 μM, light microscopy) was “ameliorated ommatidial fusion”.

Source: paper PMC4632086, “Effects and possible mechanisms of action of acacetin on the behavior and eye morphology of Drosophila models of Alzheimer’s disease” (Scientific Reports, 2015)
